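Exposure lasted 48 hours, with cells grown in 96-well plates and compounds tested at five concentrations. At the GI50, growth is halved. TGI: concentration producing complete growth inhibition.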
Legend:
Assay in all cases: inhibition of tumour cell growth, NCI panel, 48 h
[1] = system: ACHN renal
[2] = system: MALME-3M melanoma
[3] = system: HCC-2998 colon
[4] = system: RPMI-8226 leukemia
[5] = system: HL-60(TB) leukemia
[6] = system: SNB-19 CNS
[7] = system: TK-10 renal
[8] = system: SK-MEL-2 melanoma
[9] = system: EKVX NSCLC
[10] = system: SK-OV-3 ovarian
[11] = system: SR leukemia
[12] = system: MOLT-4 leukemia
[13] = system: SF-268 CNS
[14] = system: T-47D breast
[15] = system: SNB-75 CNS
[16] = system: UO-31 renal
[17] = system: OVCAR-5 ovarian
[18] = system: CAKI-1 renal
[19] = system: HCT-116 colon
[20] = system: HS 578T breast
[21] = system: UACC-257 melanoma
[22] = system: DU-145 prostate
[23] = system: SF-539 CNS
[24] = system: NCI-H226 lung
[25] = system: OVCAR-8 ovarian
[26] = system: U251 CNS
[27] = system: HCT-15 colon
[28] = system: BT-549 breast
[29] = system: HT29 colon
[30] = system: NCI-H23 lung
[31] = system: NCI-H522 lung
[32] = system: M14 melanoma
[33] = system: SK-MEL-5 melanoma
[34] = system: HOP-62 NSCLC
[35] = system: OVCAR-3 ovarian
[36] = system: SN12C renal
[37] = system: SK-MEL-28 melanoma
[38] = system: LOX IMVI melanoma
[39] = system: KM12 colon
[40] = system: MDA-MB-231 breast
[41] = system: SF-295 CNS
[42] = system: NCI-H460 lung
[43] = system: IGROV1 ovarian
[44] = system: PC-3 prostate
[45] = system: UACC-62 melanoma
[46] = system: OVCAR-4 ovarian
[47] = system: K-562 leukemia
[48] = system: COLO 205 colon
[49] = system: 786-0 renal
[50] = system: CCRF-CEM leukemia
[51] = system: MCF7 breast
[52] = system: RXF 393 renal
[53] = system: HOP-92 NSCLC
[54] = system: SW-620 colon
[55] = system: A549 NSCLC
[56] = system: NCI/ADR-RES ovarian

SMILES: CCCCC(=O)OC[n+]1ccc2c(C)c3[nH]c4ccc(OC)cc4c3c(C)c2c1
- TGI [1]: 3840 nM
- TGI [2]: > 33300 nM
- TGI [3]: 1800 nM
- TGI [4]: 983 nM
- TGI [5]: > 100000 nM
- TGI [6]: 4350 nM
- TGI [7]: 15200 nM
- TGI [8]: > 100000 nM
- TGI [9]: 3600 nM
- TGI [10]: 2930 nM
- TGI [11]: 1040 nM
- TGI [12]: 1130 nM
- TGI [13]: > 100000 nM
- TGI [14]: 14200 nM
- TGI [15]: 27200 nM
- TGI [16]: 4080 nM
- TGI [17]: 5610 nM
- TGI [18]: 4640 nM
- TGI [19]: 1370 nM
- TGI [20]: 2730 nM
- TGI [21]: > 34400 nM
- TGI [22]: 4820 nM
- TGI [23]: 1920 nM

SMILES: COc1ccc(-c2c(C#N)c(N)nc3c2CCCc2ccc(F)cc2-3)cc1OC
- TGI [1]: 19400 nM
- GI50 [24]: < 10 nM
- TGI [24]: > 100000 nM
- GI50 [2]: < 10 nM
- GI50 [3]: 354 nM
- TGI [3]: 14400 nM
- GI50 [25]: 419 nM
- TGI [25]: > 100000 nM
- GI50 [4]: < 10 nM
- TGI [4]: 1610 nM
- GI50 [26]: < 50.1 nM
- GI50 [27]: < 49.7 nM
- TGI [27]: 504 nM
- GI50 [5]: < 10 nM
- TGI [5]: > 100000 nM
- GI50 [28]: 556 nM
- TGI [28]: 26200 nM
- GI50 [6]: 20700 nM
- TGI [6]: > 92100 nM
- GI50 [29]: 1070 nM
- TGI [29]: > 41300 nM
- GI50 [30]: 487 nM
- TGI [30]: > 100000 nM
- GI50 [31]: < 10 nM
- TGI [31]: 33500 nM
- GI50 [7]: < 16.3 nM
- TGI [7]: 1700 nM
- GI50 [32]: 75.8 nM
- TGI [32]: 402 nM
- TGI [33]: 483 nM
- GI50 [34]: 131 nM
- TGI [34]: 29700 nM
- GI50 [35]: < 10 nM
- GI50 [36]: < 49.9 nM
- TGI [36]: 4750 nM
- GI50 [37]: 1030 nM
- TGI [37]: > 38000 nM
- GI50 [38]: < 42.2 nM
- TGI [38]: 19600 nM
- GI50 [39]: < 10 nM
- TGI [39]: 2580 nM
- GI50 [8]: < 10 nM
- TGI [8]: > 100000 nM
- GI50 [40]: < 39.9 nM
- TGI [40]: 758 nM
- GI50 [41]: < 10 nM
- GI50 [9]: 86.1 nM
- GI50 [42]: 16.3 nM
- TGI [42]: > 52600 nM
- GI50 [43]: 131 nM
- TGI [43]: > 100000 nM
- GI50 [10]: 4270 nM
- TGI [10]: > 92300 nM
- GI50 [44]: < 18.5 nM
- GI50 [45]: < 16.9 nM
- GI50 [12]: < 10 nM
- TGI [12]: > 100000 nM
- GI50 [13]: 33.5 nM
- TGI [13]: > 100000 nM
- GI50 [14]: 22300 nM
- TGI [14]: > 100000 nM
- GI50 [46]: 1280 nM
- TGI [46]: > 29900 nM
- GI50 [47]: < 10 nM
- TGI [47]: > 100000 nM
- GI50 [15]: 1360 nM
- TGI [15]: > 100000 nM
- GI50 [48]: 4890 nM
- TGI [48]: > 38100 nM
- GI50 [16]: 148 nM
- TGI [16]: > 100000 nM
- GI50 [17]: 8970 nM
- TGI [17]: > 100000 nM
- GI50 [49]: 96.4 nM
- TGI [49]: 30300 nM
- GI50 [18]: 24.1 nM
- TGI [18]: 35100 nM
- GI50 [50]: < 10.5 nM
- TGI [50]: > 92800 nM
- GI50 [19]: 187 nM
- TGI [19]: 11000 nM
- GI50 [51]: < 10 nM
- TGI [51]: > 100000 nM
- GI50 [52]: 58.6 nM
- TGI [52]: > 82900 nM
- GI50 [53]: 4730 nM
- TGI [53]: > 100000 nM
- TGI [54]: > 38800 nM
- GI50 [55]: 174 nM
- TGI [55]: > 54000 nM
- TGI [21]: > 78500 nM
- GI50 [22]: 16.4 nM
- TGI [22]: 15700 nM
- GI50 [56]: 480 nM
- TGI [56]: > 100000 nM
- GI50 [23]: < 10 nM
- TGI [23]: 21.3 nM

From PubChem BioAssay (NCI)
